Patent publication US9181235B2, “Substituted pyridines for modulating the WNT signaling pathway” (NOVARTIS AG, priority 2010, dated 2015)

The compounds below were run on Wnt signaling (assay: Wnt-Luc reporter assay for pathway inhibition of Wnt signaling). Details: Wnt-Luc reporter cells co-cultured with L-cell Wnt3a cells, 24 hours, luciferase signal reduced by 50%.
Format: cell-based, mouse (TM3 Wnt-Luc) or human (293 Wnt-Luc); not stated which
Description: This example provides a method that is useful for evaluating test compounds for inhibition of Wnt signaling.
Mouse leydig cell TM3 cells (obtained from American Type Culture Collection, ATCC, Manassas, Va.) are cultured in 1:1 mixture of Ham's F12 medium and Dulbecco's modified Eagle's medium (Gibco/Invitrogen, Carlsbad, Calif.) supplemented with 2.5% FBS (Gibco/Invitrogen, Carlsbad, Calif.) and 5% horse serum (Gibco/Invitrogen, Carlsbad, Calif.), 50 unit/mL penicillin and 50 μg/mL of streptomycin (Gibco/Invitrogen, Carlsbad, Calif.) at 37° C. with 5% CO2 in air atmosphere. TM3 cells in a 10 cm dish are co-transfected with 8 μg of STF-reporter plasmid containing a luciferase gene driven by Wnt-responsive elements and 2 μg of pcDNA3.1-Neo (Gibco/Invitrogen, Carlsbad, Calif.) with 30 μL of FuGENE6 (Roche Diagnostics, Indianapolis, Ind.) following the manufacturer's protocol. Stable cell lines (TM3 Wnt-Luc) were selected with 400 μg/mL of G418 (Gibco/Invitrogen, Carlsbad, Calif.). The TM3 Wnt-Luc cells and L-cell Wnt3a cells (obtained from American Type Culture Collection, ATCC, Manassas, Va.; cultured in Dulbecco's modified Eagle's medium (Gibco/Invitrogen, Carlsbad, Calif.) supplemented with 10% FBS (Gibco/Invitrogen, Carlsbad, Calif.) and 50 unit/mL penicillin and 50 μg/mL of streptomycin (Gibco/Invitrogen, Carlsbad, Calif.) at 37° C. with 5% CO2 in air atmosphere) are trypsinized and co-cultured into a 384-well plate with DMEM medium supplemented with 2% FBS, and treated with different concentrations of a compound of the invention. After 24 hours, the firefly luciferase activities are assayed with the Bright-Glo™ Luciferase Assay System (Promega, Madison, Wis.). The IC50 is measured when the effect of the compound reduces the luminescence signal by 50%.
This example provides another method that is useful for evaluating test compounds for inhibition of Wnt signaling.
Human embryonic kidney 293 cells (obtained from American Type Culture Collection, ATCC, Manassas, Va.) are cultured in DMEM medium (Gibco/Invitrogen, Carlsbad, Calif.) supplemented with 10% FBS (Gibco/Invitrogen, Carlsbad, Calif.), 50 unit/mL penicillin and 50 μg/mL of streptomycin (Gibco/Invitrogen, Carlsbad, Calif.) at 37° C. with 5% CO2 in air atmosphere. 293 cells in a 10 cm dish are co-transfected with 8 μg of STF-reporter plasmid containing a luciferase gene driven by Wnt-responsive elements and 2 μg of pcDNA3.1-Neo (Gibco/Invitrogen, Carlsbad, Calif.) with 30 μL of FuGENE6 (Roche Diagnostics, Indianapolis, Ind.) following the manufacturer's protocol. Stable cell lines (293 Wnt-Luc) were selected with 400 μg/mL of G418 (Gibco/Invitrogen, Carlsbad, Calif.). The 293 Wnt-Luc cells and L-cell Wnt3a cells (obtained from American Type Culture Collection, ATCC, Manassas, Va.) are trypsinized and co-cultured into a 384-well plate with DMEM medium supplemented with 2% FBS, and treated with different concentrations of a compound of the invention. After 24 hours, the firefly luciferase activities are assayed with the Bright-Glo™ Luciferase Assay System (Promega, Madison, Wis.). The IC50 is measured when the effect of the compound reduces the luminescence signal by 50%.

Row | SMILES | IC50
1 | O=C(NCc1ccc(-c2ccnnc2)cc1)c1ccc(-c2ccccc2)cc1 [compound 1, N-(4-(pyridazin-4-yl)benzyl)biphenyl-4-carboxamide] | 1.9 nM
2 | O=C(NCc1ccc(-c2ccnnc2)cc1)c1ccc(-c2cccc(F)c2)cc1 [compound 2, 4-(3-fluorophenyl)-N-{[4-(pyridazin-4-yl)phenyl]methyl}benzamide] | 0.95 nM
3 | O=C(NCc1ccc(N2CCS(=O)(=O)CC2)nc1)c1ccc(-c2cccc(F)c2)cc1 [compound 3, N-((6-(1,1-dioxidothiomorpholino)pyridin-3-yl)methyl)-3′-fluoro-[1,1′-biphenyl]-4-carboxamide] | 2.3 nM
4 | O=C(NCc1ccc(N2CCS(=O)(=O)CC2)nc1)c1ccc(-c2cccc(F)c2)nc1 [compound 4, N-((6-(1,1-dioxidothiomorpholino)pyridin-3-yl)methyl)-6-(3-fluorophenyl)nicotinamide] | 2.4 nM
5 | O=C(NCc1ccc(N2CCS(=O)(=O)CC2)nc1)c1ccc(-c2cccnc2)nc1 [compound 5, N-((6-(1,1-dioxidothiomorpholino)pyridin-3-yl)methyl)-[2,3′-bipyridine]-5-carboxamide] | 129 nM
6 | O=C(NCc1ccc(N2CCS(=O)(=O)CC2)nc1)c1ccc(-c2cccc(F)c2)cn1 [compound 6, 5-(3-Fluorophenyl)-N-((6-(1,1-dioxide-thiomorpholino)pyridin-3-yl)methyl)picolinamide] | 0.9 nM
7 | COC(=O)N1CCN(c2ccc(C(=O)NCc3ccc(N4CCS(=O)(=O)CC4)nc3)cc2)CC1 [compound 7, methyl 4-(4-(((6-(1,1-dioxidothiomorpholino)pyridin-3-yl)methyl)carbamoyl)phenyl)piperazine-1-carboxylate] | 19 nM
8 | O=C(NCc1ccc(N2CC[S+]([O-])CC2)nc1)c1ccc(-c2cccc(F)c2)cc1 [compound 8, 3′-fluoro-N-((6-(1-oxide-thiomorpholino)pyridin-3-yl)methyl)biphenyl-4-carboxamide] | 0.7 nM
9 | Cc1cc(-c2ccc(CNC(=O)c3ccc(-c4ccccc4)cc3)cc2)ccn1 [compound 9, N-{[4-(2-methylpyridin-4-yl)phenyl]methyl}-4-phenylbenzamide] | 0.06 nM
10 | O=C(NCc1ccc(-c2cccnc2)cc1)c1ccc(-c2ccccc2)cc1 [compound 10, N-(4-(pyridin-3-yl)benzyl)biphenyl-4-carboxamide] | 12.5 nM
11 | Cc1cc(-c2ccc(CNC(=O)c3ccc(-c4ccccc4)cn3)cc2)ccn1 [compound 11, N-{[4-(2-methylpyridin-4-yl)phenyl]methyl}-5-phenylpyridine-2-carboxamide] | 0.2 nM
12 | Cc1cc(-c2ccc(CNC(=O)c3ccc(-c4cccc(F)c4)cc3)cc2)ccn1 [compound 12, 4-(3-fluorophenyl)-N-{[4-(2-methylpyridin-4-yl)phenyl]methyl}benzamide] | 0.06 nM
13 | Cc1cc(-c2ccc(CNC(=O)c3ccc(-c4ccccn4)cc3)cc2)ccn1 [compound 13, N-(4-(2-methylpyridin-4-yl)benzyl)-4-(pyridin-2-yl)benzamide] | 0.1 nM
14 | COC(=O)N1CCN(c2ccc(C(=O)NCc3cnc(-c4ccnc(C(F)(F)F)c4)c(F)c3)cn2)CC1 [compound 14, methyl 4-{5-[({5-fluoro-6-[2-(trifluoromethyl)pyridin-4-yl]pyridin-3-yl}methyl)carbamoyl]pyridin-2-yl}piperazine-1-carboxylate] | 0.44 nM
15 | Cc1cc(-c2ccc(CNC(=O)c3ccc(-c4cncnc4)cc3)cc2F)ccn1 [compound 15, N-(3-fluoro-4-(2-methylpyridin-4-yl)benzyl)-4-(pyrimidin-5-yl)benzamide] | 0.01 nM
16 | Cc1cc(-c2ccc(CNC(=O)c3ccc(-c4cncnc4)cc3)cc2)ccn1 [compound 16, N-{[4-(2-methylpyridin-4-yl)phenyl]methyl}-4-(pyrimidin-5-yl)benzamide] | 0.05 nM
17 | Cc1cc(-c2ccc(CNC(=O)c3ccc(-c4cnccn4)cc3)cc2)ccn1 [compound 17, N-{[4-(2-methylpyridin-4-yl)phenyl]methyl}-4-(pyrazin-2-yl)benzamide] | 0.06 nM
18 | Cc1cc(-c2ccc(CNC(=O)c3ccc(-c4cnccn4)cc3)cn2)ccn1 [compound 18, N-((2′-methyl-[2,4′-bipyridin]-5-yl)methyl)-4-(pyrazin-2-yl)benzamide] | 0.2 nM
19 | Cc1cc(-c2ccc(CNC(=O)c3ccc(-c4ccnnc4)nc3)cc2)ccn1 [compound 19, N-{[4-(2-methylpyridin-4-yl)phenyl]methyl}-6-(pyridazin-4-yl)pyridine-3-carboxamide] | 27 nM
20 | CC(=O)N1CCN(c2ccc(C(=O)NCc3ccc(-c4ccnc(C)c4)c(F)c3)cn2)CC1 [compound 20, 6-(4-Acetylpiperazin-1-yl)-N-(3-fluoro-4-(2-methylpyridin-4-yl)benzyl)nicotinamide] | 6.4 nM
21 | Cn1cc(-c2ccc(CNC(=O)c3ccc(-c4cnccn4)cc3)cc2F)ccc1=O [compound 21, N-(3-fluoro-4-(1-methyl-6-oxo-1,6-dihydropyridin-3-yl)benzyl)-4-(pyrazin-2-yl)benzamide] | 6.4 nM
22 | CC(=O)N1CCN(c2ccc(C(=O)NCc3ccc(-c4ccnc(C)c4)c(F)c3)nc2)CC1 [compound 22, 5-(4-acetylpiperazin-1-yl)-N-{[3-fluoro-4-(2-methylpyridin-4-yl)phenyl]methyl}pyridine-2-carboxamide] | 8.5 nM
23 | Cc1cc(-c2ccc(CNC(=O)c3ccc(-c4cccc(F)c4)cc3)cn2)ccn1 [compound 23, 4-(3-fluorophenyl)-N-{[6-(2-methylpyridin-4-yl)pyridin-3-yl]methyl}benzamide] | 0.1 nM
24 | O=C(NCc1ccc(-c2ccnc(F)c2)nc1)c1ccc(-c2cnccn2)cc1 [compound 24, N-((2′-fluoro-[2,4′-bipyridin]-5-yl)methyl)-4-(pyrazin-2-yl)benzamide] | 0.8 nM
25 | CN(C)c1ccc(-c2ccc(C(=O)NCc3ccc(-c4ccnc(F)c4)nc3)cn2)cn1 [compound 25, 6-[6-(dimethylamino)pyridin-3-yl]-N-{[6-(2-fluoropyridin-4-yl)pyridin-3-yl]methyl}pyridine-3-carboxamide] | 1.4 nM
26 | Cc1cc(-c2ccc(CNC(=O)c3ccc(-c4cccc(F)c4)cn3)cn2)ccn1 [compound 26, 5-(3-fluorophenyl)-N-{[6-(2-methylpyridin-4-yl)pyridin-3-yl]methyl}pyridine-2-carboxamide] | 0.5 nM
27 | Cc1cc(-c2ccc(CNC(=O)c3ccc(-c4cccc(F)c4)nc3)cn2)ccn1 [compound 27, 6-(3-fluorophenyl)-N-{[6-(2-methylpyridin-4-yl)pyridin-3-yl]methyl}pyridine-3-carboxamide] | 0.2 nM
28 | O=C(NCc1ccc(-c2ccnc(C(F)(F)F)c2)cc1)c1ccc(-c2cnccn2)cc1 [compound 28, 4-(Pyrazin-2-yl)-N-(4-(2-(trifluoromethyl)pyridin-4-yl)benzyl)benzamide] | 0.9 nM
29 | Cc1cc(-c2ccc(CNC(=O)c3ccc(-c4cccc(N(C)C)c4)cn3)cn2)ccn1 [compound 29, 5-[3-(dimethylamino)phenyl]-N-{[6-(2-methylpyridin-4-yl)pyridin-3-yl]methyl}pyridine-2-carboxamide] | 43 nM
30 | Cc1cc(CNC(=O)c2ccc(-c3cccc(F)c3)cn2)cnc1-c1ccnc(F)c1 [compound 30, N-((2′-fluoro-3-methyl-2,4′-bipyridin-5-yl)methyl)-5-(3-fluorophenyl)picolinamide] | 0.17 nM
